{"source": "patent US7888319B2", "about": "“Compositions and methods for promoting wound healing and tissue regeneration” (MUSC Foundation for Research Development, priority 2004, dated 2011)", "tested_on": "WB-F344 cells", "assay": "Scratch injury of WB-F344 cell lines stably expressing ACT-peptide-encoding polynucleotide", "format": "cell-based, rat", "settings": "stable expression with GFP, 24 hours after scratch, vs GFP-only cell line", "description": "WB-F344 cells are a transformed rat epithelial cell line derived by treatment of isolated rat liver cells with a cancer-causing agent (Tsao et al., 1984; Hayashi et al., 1997; Hayashi et al., 1998; Hayashi et al., 2001). WB-F344 cells were transfected with a cDNA expression plasmid construct and selected under antibiotic using standard protocols to generate cell lines that stably expressed an ACT-peptide-encoding-polynucleotide (SEQ ID NO:6) operably linked to a promoter sequence or a green fluorescent protein (GFP) polynucleotide operably linked to a promoter sequence as a control. The polynucleotide encoding the ACT peptide also encoded GFP. As such, expression of the ACT peptide could be assayed by standard GFP fluorescence optics on a light microscope. (a) and (b) show high magnification images of GFP fluorescence in WB-F344 cell lines expressing GFP plus the carboxy terminus ACT peptide sequence (a) or GFP alone (b). Near confluent monolayers of the WB-F344 cell lines were “scratch injured” and allowed to “heal” for 24 hours. […]\nWB-F344 cells are a transformed rat epithelial cell line derived by treatment of isolated rat liver cells with a cancer-causing agent (Tsao et al., 1984; Hayashi et al., 1997; Hayashi et al., 1998; Hayashi et al., 2001). […] As such, expression of the ACT peptide could be assayed by standard GFP fluorescence optics on a light microscope. […]"}
{"substance": "aga cct cgg cct gat gac ctg gag att (DNA AGACCTCGGCCTGATGACCTGGAGATT; expressed or natural sequence) [ACT-peptide-encoding-polynucleotide, polynucleotide encoding ACT peptide plus GFP, operably linked to a promoter, stably expressed in WB-F344 cells]", "values": [{"measurement": "repopulation of the scratch injury", "value": "inhibited repopulation of the scratch injury"}]}
